Experimental data reported in paper PMC8708751, “Hit Identification of a Novel Quinazoline Sulfonamide as a Promising EphB3 Inhibitor: Design, Virtual Combinatorial Library, Synthesis, Biological Evaluation, and Docking Simulation Studies” (Pharmaceuticals, 2021).

Experiments:
Type in all cases: biochemical
KDR/VEGFR2 = target: T1, KDR/VEGFR2 (Homo sapiens, UniProt P35968); test: Kinase panel assay, KDR/VEGFR2; settings: KDR/VEGFR2, 10 µM; read-out: Average % Enzyme Inhibition (Relative to DMSO Controls) at 10 µM
T1 construct: purchased Reaction Biology Co. (Kinase HotSpot service)
Procedure: (§1) The screening of the tested compounds was performed using the Kinase HotSpot^SM service from Reaction Biology Co. (http://www.reactionbiology.com, accessed on 25 September 2021). The HotSpot assay platform contains specific kinase/substrate pairs along with required cofactors. Base reaction buffer: 20 mM Hepes (pH 7.5), 10 mM MgCl2, 1 mM EGTA, 0.02% Brij35, 0.02 mg/mL BSA, 0.1 mM Na3VO4, 2 mM DTT, 1% DMSO. The tested compounds were dissolved in 100% DMSO to specific concentration. The serial dilution was conducted by Integra Viaflo Assist in DMSO (Sigma-Aldrich, Burlington, MA, USA). The reaction mixture containing the examined compound and 33P-ATP was incubated at room temperature for 2 h, and radioactivity was detected by filter-binding method. Kinase activity data were expressed as the percent remaining kinase activity in test samples compared to vehicle (dimethyl sulfoxide) reactions. IC50 values and curve fits were obtained using Prism (GraphPad Software, San Diego, CA, USA).

EphB2 = target: T2, EphB2 (Homo sapiens, UniProt P29323); test: Kinase panel assay, EphB2
T2 construct: purchased Reaction Biology Co. (Kinase HotSpot service)
T2 sequence (P29323 19-1055): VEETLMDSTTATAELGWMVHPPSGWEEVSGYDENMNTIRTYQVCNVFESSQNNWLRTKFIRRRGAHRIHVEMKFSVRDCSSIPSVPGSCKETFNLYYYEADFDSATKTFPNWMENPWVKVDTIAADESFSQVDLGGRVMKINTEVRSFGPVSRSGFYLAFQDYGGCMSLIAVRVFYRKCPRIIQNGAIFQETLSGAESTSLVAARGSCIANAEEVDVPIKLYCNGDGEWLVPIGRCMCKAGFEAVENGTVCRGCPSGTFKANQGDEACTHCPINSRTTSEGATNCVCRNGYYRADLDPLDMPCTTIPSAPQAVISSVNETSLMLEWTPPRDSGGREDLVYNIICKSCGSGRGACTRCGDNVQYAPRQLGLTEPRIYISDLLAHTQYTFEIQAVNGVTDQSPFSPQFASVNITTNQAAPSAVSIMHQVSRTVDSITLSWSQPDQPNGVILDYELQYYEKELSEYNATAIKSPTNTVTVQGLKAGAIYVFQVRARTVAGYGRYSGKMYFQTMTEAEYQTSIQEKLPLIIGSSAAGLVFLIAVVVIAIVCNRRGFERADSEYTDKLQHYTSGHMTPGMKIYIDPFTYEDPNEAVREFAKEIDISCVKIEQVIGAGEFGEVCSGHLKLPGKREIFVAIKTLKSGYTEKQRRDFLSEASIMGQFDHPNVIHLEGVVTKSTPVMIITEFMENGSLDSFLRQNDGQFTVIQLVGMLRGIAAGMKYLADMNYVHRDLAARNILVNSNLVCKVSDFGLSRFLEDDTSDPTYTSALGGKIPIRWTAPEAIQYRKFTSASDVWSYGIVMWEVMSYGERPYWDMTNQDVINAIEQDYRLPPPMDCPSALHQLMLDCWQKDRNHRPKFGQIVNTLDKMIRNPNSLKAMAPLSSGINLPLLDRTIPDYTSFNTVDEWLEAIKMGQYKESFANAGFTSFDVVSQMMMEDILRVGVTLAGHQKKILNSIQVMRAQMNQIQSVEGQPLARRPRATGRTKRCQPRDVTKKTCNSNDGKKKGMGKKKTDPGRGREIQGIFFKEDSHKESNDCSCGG
Procedure: […]. A further dose-dependent assay was conducted to validate the selectivity of compound 4c over the EphB isoforms. […]. Accordingly, it could be considered as a promising selective inhibitor for EphB3 isoform.
as §1

EphB4 = target: T3, EphB4 (Homo sapiens, UniProt P54760); test: Kinase panel assay, EphB4
T3 construct: purchased Reaction Biology Co. (Kinase HotSpot service)
T3 sequence (P54760 16-987): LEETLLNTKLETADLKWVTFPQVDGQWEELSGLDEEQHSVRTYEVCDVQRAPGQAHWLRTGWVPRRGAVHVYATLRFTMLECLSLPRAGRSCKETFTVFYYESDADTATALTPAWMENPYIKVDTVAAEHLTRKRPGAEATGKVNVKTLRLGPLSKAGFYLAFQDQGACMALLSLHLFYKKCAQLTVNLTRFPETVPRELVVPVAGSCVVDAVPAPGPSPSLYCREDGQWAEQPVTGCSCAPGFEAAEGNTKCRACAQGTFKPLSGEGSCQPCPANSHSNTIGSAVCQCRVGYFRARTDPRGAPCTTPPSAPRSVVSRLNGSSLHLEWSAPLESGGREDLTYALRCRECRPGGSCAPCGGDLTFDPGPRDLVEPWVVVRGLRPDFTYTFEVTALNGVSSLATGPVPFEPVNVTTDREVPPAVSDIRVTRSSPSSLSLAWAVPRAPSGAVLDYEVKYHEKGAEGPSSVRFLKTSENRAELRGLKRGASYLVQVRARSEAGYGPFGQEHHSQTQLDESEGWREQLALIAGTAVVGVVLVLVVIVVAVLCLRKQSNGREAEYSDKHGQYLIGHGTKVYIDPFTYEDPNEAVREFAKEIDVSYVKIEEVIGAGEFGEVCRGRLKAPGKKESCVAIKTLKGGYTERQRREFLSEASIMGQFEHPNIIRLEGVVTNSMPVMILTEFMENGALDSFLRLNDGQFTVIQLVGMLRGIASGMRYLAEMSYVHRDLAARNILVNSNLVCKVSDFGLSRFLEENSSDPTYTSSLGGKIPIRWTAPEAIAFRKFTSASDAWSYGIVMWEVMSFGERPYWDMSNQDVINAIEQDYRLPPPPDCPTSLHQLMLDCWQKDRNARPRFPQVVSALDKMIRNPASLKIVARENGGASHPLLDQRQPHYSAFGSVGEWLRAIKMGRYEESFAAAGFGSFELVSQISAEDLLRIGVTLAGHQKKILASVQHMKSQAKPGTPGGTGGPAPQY
Procedure: as §1, with “The” for “The screening of the tested compounds was performed using the Kinase HotSpot^SM service from Reaction Biology Co. (http://www.reactionbiology.com, accessed on 25 September 2021). The”

T1 sequence (P35968 20-1356): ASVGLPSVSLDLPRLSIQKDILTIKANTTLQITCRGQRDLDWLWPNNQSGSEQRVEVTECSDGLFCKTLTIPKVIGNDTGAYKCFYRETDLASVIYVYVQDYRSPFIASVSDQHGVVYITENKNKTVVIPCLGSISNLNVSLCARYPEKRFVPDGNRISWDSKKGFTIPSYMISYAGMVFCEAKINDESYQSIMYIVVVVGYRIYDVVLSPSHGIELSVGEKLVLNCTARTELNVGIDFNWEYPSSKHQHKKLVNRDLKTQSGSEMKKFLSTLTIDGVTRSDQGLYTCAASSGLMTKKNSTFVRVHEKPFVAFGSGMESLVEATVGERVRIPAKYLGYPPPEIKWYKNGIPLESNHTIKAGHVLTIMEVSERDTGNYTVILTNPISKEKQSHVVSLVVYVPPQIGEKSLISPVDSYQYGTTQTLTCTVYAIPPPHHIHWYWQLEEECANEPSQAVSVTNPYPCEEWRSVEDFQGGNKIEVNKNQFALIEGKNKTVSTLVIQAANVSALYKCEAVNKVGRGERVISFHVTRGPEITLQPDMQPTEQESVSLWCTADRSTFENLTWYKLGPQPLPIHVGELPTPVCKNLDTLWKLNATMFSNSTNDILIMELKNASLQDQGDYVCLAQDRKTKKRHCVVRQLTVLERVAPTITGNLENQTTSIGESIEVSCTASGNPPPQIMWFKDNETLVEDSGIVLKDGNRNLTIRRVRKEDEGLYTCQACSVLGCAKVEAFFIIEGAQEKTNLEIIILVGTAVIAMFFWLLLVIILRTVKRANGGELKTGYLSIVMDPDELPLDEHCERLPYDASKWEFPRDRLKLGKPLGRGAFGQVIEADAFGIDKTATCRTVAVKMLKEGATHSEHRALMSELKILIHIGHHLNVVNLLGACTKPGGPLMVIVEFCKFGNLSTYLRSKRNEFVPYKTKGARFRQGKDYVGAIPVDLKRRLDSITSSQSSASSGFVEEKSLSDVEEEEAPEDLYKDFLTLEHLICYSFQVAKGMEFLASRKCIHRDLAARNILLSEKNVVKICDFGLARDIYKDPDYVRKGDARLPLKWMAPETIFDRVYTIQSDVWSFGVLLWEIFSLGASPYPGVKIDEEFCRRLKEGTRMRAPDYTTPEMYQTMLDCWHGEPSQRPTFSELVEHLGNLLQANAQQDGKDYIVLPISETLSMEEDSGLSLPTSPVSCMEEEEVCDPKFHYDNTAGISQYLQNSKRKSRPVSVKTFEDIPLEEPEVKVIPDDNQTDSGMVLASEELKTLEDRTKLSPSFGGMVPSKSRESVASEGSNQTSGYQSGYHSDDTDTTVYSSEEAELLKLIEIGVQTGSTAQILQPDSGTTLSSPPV

In the case of `NS(=O)(=O)c1ccc(Nc2ncnc3ccc(-c4cccc(O)c4)cc23)cc1` [Compound 4c, 4-((6-(3-Hydroxyphenyl)quinazolin-4-yl)amino)benzenesulfonamide], the inhibition at 10 µM (KDR/VEGFR2) is reported as 47.8%, the inhibition at 10 µM (EphB2; EphB2, 10 µM, read-out: Average % Enzyme Inhibition (Relative to DMSO Controls) at 10 µM) is reported as 76.32 ± 0.61% and the IC50 (EphB2; EphB2, dose-dependent assay) is reported as 3.95 µM. The inhibition at 10 µM (EphB4; EphB4, 10 µM, read-out: Average % Enzyme Inhibition (Relative to DMSO Controls) at 10 µM) was 70.2 ± 3.64% and the IC50 (EphB4; EphB4, dose-dependent assay) was 3.98 µM.
